Experimental data as given in patent US9814732B2, “Ulipristal acetate for prevention and treatment of breast tumors” (LABORATOIRE HRA-PHARMA, priority 2012, dated 2017).

Assays:
[1] = tested on: HBCx-34 tumors; conditions: model characterisation; cited from earlier work
[2] = biological target: T1, GR (Homo sapiens, UniProt P04150); experiment: GRE-Luc reporter gene transactivation in HBE cells; format: cell-based; conditions: DEX 100 nM, test compound 100 nM, read-out: inhibition of DEX induced luciferase transactivation (GRE-Luc)
T1 sequence (P04150 1-777): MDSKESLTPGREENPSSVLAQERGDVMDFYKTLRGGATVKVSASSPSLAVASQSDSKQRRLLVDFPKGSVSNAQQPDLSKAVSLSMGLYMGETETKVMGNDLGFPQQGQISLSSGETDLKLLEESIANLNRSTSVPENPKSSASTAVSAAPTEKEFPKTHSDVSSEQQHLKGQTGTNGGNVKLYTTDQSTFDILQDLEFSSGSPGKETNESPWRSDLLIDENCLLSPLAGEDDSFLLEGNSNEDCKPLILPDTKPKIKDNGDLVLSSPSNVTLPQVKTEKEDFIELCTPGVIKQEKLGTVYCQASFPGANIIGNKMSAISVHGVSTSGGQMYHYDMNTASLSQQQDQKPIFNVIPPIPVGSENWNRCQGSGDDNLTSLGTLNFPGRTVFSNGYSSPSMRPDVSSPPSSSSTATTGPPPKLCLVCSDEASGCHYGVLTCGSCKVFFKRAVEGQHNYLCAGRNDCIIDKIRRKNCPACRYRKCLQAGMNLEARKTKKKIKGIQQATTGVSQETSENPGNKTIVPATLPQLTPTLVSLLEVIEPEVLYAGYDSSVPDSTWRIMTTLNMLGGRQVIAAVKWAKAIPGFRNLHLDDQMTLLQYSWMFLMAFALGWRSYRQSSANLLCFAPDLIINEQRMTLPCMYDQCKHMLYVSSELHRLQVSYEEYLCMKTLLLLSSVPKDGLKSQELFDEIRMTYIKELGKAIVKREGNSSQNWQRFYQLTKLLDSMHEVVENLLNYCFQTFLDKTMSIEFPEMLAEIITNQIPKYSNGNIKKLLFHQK

[3] = biological target: T1, GR; experiment: GRE-Luc reporter gene transactivation in MCF-7 cells; format: cell-based; design: endogenous in cells; host or cells: MCF-7; conditions: MCF7, DEX 100 nM, test compound 100 nM, read-out: inhibition of DEX-induced luciferase transactivation (GRE-Luc)
[4] = tested on: metastatic breast cancers; conditions: cited from earlier work; for disease stabilization / objective response rate: 123 postmenopausal women, second or third line, mifepristone or onapristone pooled
[5] = Hormone concentrations in serum of pellet-treated athymic mice; format: in vivo; conditions: female, NMRI nu/nu athymic, mouse, other: steroid pellets grafted onto the neck, E2 0.3 mg pellet, day 28, read-out: concentration in mice serum (mean±SEM)
Protocol: (§1) Four weeks old ovariectomized female NMRInu/nu 20 athymic mice were purchased from Janvier laboratory (Le Genest Saint Isle, France). Breast tissues samples were obtained from 6 women (aged 29-42 years). Human mammary gland tissue was cut into 2×2×2 mm fragments and 4 fragments were then subcutaneously xenografted onto the back of 4 mice per group. Four treatment groups were performed: control, E2, E2+P and E2+P+UPA. Treatments were administered by grafting steroid pellets onto the neck of each mouse. The experimental conditions were initially determined by using a dose range of hormones mixed with cholesterol into the pellets. Blood sample assays were performed after 2 weeks and 4 weeks of treatment to measure plasmatic hormonal concentrations. Finally, the dose of 0.3 mg for E2 and 20 mg for P and UPA were used, as it provides the expected blood concentrations. For the control groups, pellets containing only cholesterol were used. To reproduce menstrual cycle conditions, mice were grafted on the first day of experiment with cholesterol, E2 and/or UPA containing pellets and on the fourteen day with cholesterol or progesterone containing pellets in control and E2 groups, or in E+P and E2+P+UPA groups, respectively. Twenty eight days after the start of experiment, mice were sacrificed. Blood was collected for each mouse, and serum was frozen at −20° C. until hormone concentrations
Estradiol was measured by radioimmunoassay using Clinical Assays Estradiol-2 (Sorin Biomedica Diagnostics SpA, Saluggia, Italia). Progesterone levels were evaluated by UPLC-MSMS using Acquity UPLC and Quattro Premier XE (Waters, Milford Mass., USA).
UPA concentrations were measured using LC-MS/MS technique by MPI Research (State College, Pa., USA).

[6] = tested on: normal human breast tissues xenografts; experiment: Ki67 mitotic index in normal human breast tissue xenografted in athymic mice; format: in vivo; conditions: 28 days
From the text: Breast tissues samples were obtained from 6 women (aged 29-42 years) undergoing surgery for reduction mammoplasty, with their informed consent according to the French law on clinical experimentation.
as §1
Mitotic index was calculated using the Ki67 antibody, and was determined for each breast tissue grafted into mice. Immunohistochemical analyses were performed using the BOND-MAX workstation (Leica, Nanterre, France). Paraffin sections of breast tissue xenografts were de-waxed and rehydrated before antigen retrieval using citrate retrieval solution (pH 6.0) for Ki67 antibody or EDTA retrieval solution (pH 9.0) for PR and ERalpha antibodies, for 30 min. […]

[7] = tested on: hPR-A and hPR-B; experiment: MMTV-Luc reporter gene transactivation in HBE cells transfected with hPR-A and/or hPR-B; format: cell-based, human
Protocol: (§2) T-47D and MCF-7 cell lines were respectively maintained in RPMI 1640 and in DMEM medium supplemented with 10% fetal calf serum (PAA Laboratory, Les Mureaux, France). […] Normal human breast epithelial cell (HBE) primary cultures were obtained from 20 women (aged 17-50 years). […] HBE cells were maintained in HAM F10 medium (PAA Laboratory, Les Mureaux, France) containing hydrocortisone (5 ng/ml), Triiodo-L-thyronine (6.5 ng/ml), choleratoxin (10 ng/ml), transferrin (5 mg/ml), insulin (0.016 U/ml), epidermal growth factor (10 ng/ml) (Sigma, St Quentin Fallavier, France) and 5% human serum (Etablissement Français du Sang).
(§3) After seeding, cells were cultured for 24 h in serum and phenol red free medium. Then treatments were carried out in a phenol red free medium containing 5% dextran-charcoal stripped serum. […] Control cells were treated with ethanol, at 10 1:1000 final ethanol concentration alone as vehicle or E2 (10 nM).
(§4) Cells were transfected with reporter gene plasmids containing glucocorticoid and progesterone responsive elements (GRE/PRE): 1) the MMTV-Luc is a Mouse Mammary Tumor Virus Long Terminal Repeat promoter containing one GRE/PRE palindrome and three GRE/PRE hemi-palindromes upstream to firefly luciferase gene in pFC31 vector, 2) the GRELuc contains six copies of GRE/PRE palindrome upstream to firefly luciferase gene in pBL vector. When indicated, HBE cells were transfected with human PR isoforms hPR-A and hPR-B expression plasmids constructed in POP3 vectors. Rous Sarcoma Virus promoter upstream to beta galactosidase gene (pRSV-β-Gal) was transfected in each experiment as control. Transfections were performed according to the manufacturer instructions using Lipofectamine or Lipofectamine LTX Reagents (Invitrogen, Cergy-Pontoise, France) for breast cancer cell lines or HBE cells, respectively. After 24 h of transfection, breast cancer and HBE cells were treated with hormones for 24 h or 48 h, respectively. At the end of the experiment, cells were lysed and luciferase activity was determined using the Luciferase Assay System (Promega, Charbonnières-les-bains, France). Beta galactosidase activity was assessed using the Galacto Star kit (Applied Biosystems, Courtaboeuf, France) to normalize luciferase activity data.

[8] = biological target: T2, PR (Homo sapiens, UniProt P06401); experiment: MMTV-Luc reporter gene transactivation in T-47D cells; format: cell-based; design: constitutively expressed high amounts of PR (progesterone receptor); endogenous in cells; host or cells: T-47D
T2 sequence (P06401 1-933): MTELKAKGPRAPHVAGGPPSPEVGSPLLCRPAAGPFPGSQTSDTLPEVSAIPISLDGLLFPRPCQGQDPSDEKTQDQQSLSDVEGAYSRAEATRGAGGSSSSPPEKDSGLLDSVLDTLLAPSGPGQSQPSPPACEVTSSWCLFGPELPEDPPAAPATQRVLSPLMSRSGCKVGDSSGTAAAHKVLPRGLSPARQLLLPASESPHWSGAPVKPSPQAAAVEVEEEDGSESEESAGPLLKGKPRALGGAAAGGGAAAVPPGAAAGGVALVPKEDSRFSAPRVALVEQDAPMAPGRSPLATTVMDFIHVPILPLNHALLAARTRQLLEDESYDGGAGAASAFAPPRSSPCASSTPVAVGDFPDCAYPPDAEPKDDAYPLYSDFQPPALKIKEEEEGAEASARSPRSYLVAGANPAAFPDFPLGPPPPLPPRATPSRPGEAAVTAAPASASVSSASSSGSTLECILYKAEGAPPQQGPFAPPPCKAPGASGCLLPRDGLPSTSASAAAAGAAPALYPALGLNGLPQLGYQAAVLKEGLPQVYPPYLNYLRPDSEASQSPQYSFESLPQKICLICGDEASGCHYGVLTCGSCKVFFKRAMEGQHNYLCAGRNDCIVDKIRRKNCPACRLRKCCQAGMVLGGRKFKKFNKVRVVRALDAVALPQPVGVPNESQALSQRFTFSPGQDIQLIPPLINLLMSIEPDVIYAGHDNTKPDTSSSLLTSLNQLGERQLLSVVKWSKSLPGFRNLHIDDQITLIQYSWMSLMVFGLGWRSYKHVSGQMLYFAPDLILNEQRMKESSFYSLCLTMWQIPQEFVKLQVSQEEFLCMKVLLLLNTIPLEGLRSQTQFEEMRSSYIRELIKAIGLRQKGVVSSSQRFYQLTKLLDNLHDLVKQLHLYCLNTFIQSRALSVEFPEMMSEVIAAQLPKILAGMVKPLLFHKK
Protocol: as §2, §3, §4

For `CCCCCOC(=O)Nc1nc(=O)n([C@@H]2O[C@H](C)[C@@H](O)[C@H]2O)cc1F` [capecitabine], the “responsiveness of the HBCx-34 tumor” value [1] is listed as “responsive”.

In the case of `CC(=O)O[C@@]12CO[C@@H]1C[C@H](O)[C@@]1(C)C(=O)[C@H](O)C3=C(C)[C@@H](OC(=O)[C@H](O)[C@@H](NC(=O)OC(C)(C)C)c4ccccc4)C[C@@](O)([C@@H](OC(=O)c4ccccc4)[C@H]21)C3(C)C` [docetaxel], the “responsiveness of the HBCx-34 tumor” value [1] is listed as “responsive”.

`CNc1ccc([C@H]2C[C@@]3(C)[C@@H](CC[C@]3(OC(C)=O)C(C)=O)[C@@H]3CCC4=CC(=O)CCC4=C32)cc1` [CDB-3877] gave an inhibition at 0.1 µM [2] of 18.1 ± 11.8% and an inhibition at 0.1 µM [3] of 26.5 ± 9.1%.

For `CN(C)c1ccc([C@H]2C[C@]3(C)[C@@H](CC[C@]3(O)CCCO)[C@@H]3CCC4=CC(=O)CCC4=C32)cc1` [onapristone], the disease stabilization [4] is given as 43%, the objective response rate [4] is given as 11% and the “side effects that stopped clinical studies” value [4] is given as “liver toxic”.

For `C[C@]12CC[C@@H]3c4ccc(O)cc4CC[C@H]3[C@@H]1CC[C@@H]2O` [E2, 17β estradiol], the concentration at 28 days [5] was 0.0369 ± 0.00425 ng/mL, the “proliferative activity (Ki67) in lobules” value ([6]; E2 treated group vs control group) was “slightly but not significantly increased” and the “mitotic index (Ki67) in ducts” value ([6]; E2 treated group, p<0.05) was 3.1±0.7 fold induction compared to the control group.

In the case of `CC#C[C@]1(O)CC[C@H]2[C@@H]3CCC4=CC(=O)CCC4=C3[C@@H](c3ccc(N(C)C)cc3)C[C@@]21C` [RU-486, mifepristone], the “inhibition of P induced MMTV-Luc transactivation” value ([7]; HBE cells co-transfected with hPR-A and hPR-B, P 100 nM, antagonist 1 to 1000 nM) is listed as “inhibited P induced MMTV11 Luc transactivation in a dose dependent manner from 1 000 to 10 nM”, the “progestational agonist properties on reporter gene transcription” value ([7]; HBE cells, compound alone) is listed as “did not exhibit progestational agonist properties” and the disease stabilization [4] is listed as 43%. For the same compound, the objective response rate [4] was 11%, the “side effects that stopped clinical studies” value [4] was “anti-glucocorticoid” and the “PR antagonist response on MMTV-Luc transactivation at 1 nM” value ([8]; P 100 nM, antagonist 1 nM) was “Partial antagonist responses”. For the same compound, the “PR antagonist action on MMTV-Luc transactivation” value ([8]; P 100 nM, antagonist 1000 to 10 nM) was “potent PR antagonist actions from 1000 to 10 nM” and the “progestational agonist properties on reporter gene transcription” value ([8]; compound alone) was “did not exhibit progestational agonist properties”.
